Results published in paper PMC10495264 (Nature Cell Biology, 2023).
Values joined by “and” are separate entries in the source; they are usually repeats but may differ in a detail not shown here. Identical values can stand only once.

How the values were obtained:
TORC1 [1] = biological target: T1, TORC1 (Saccharomyces cerevisiae, UniProt P35169); experiment: MST binding affinity assays with fluorescent TORC1 (GFP–Tor1)
T1 construct: made in house; host or cells: S. cerevisiae strain NIC005 ([RL170-2c] LEU2:GFP-TOR1)
Experimental: The MST experiments were performed using a Monolith NT.115 (Nanotemper Technologies). Purification of TORC1 containing the N-terminally GFP-tagged Tor1 subunit was carried out as described previously. For the protein–protein interaction experiments, GFP–Tor1-containing TORC1 (7.5 nM) was mixed with a series of twofold dilutions (a total of 16 samples) of Acc1 (highest concentration, 80 nM) or Fas1 (highest concentration, 20 nM) purified from yeast through TAP-tag immuno-enrichment with rabbit IgG-coated magnetic beads and subsequent TEV cleavage in elution buffer (50 mM HEPES NaOH pH 7.5 and 150 mM NaCl) for 1 h at 18 °C. The samples were loaded into Monolith NT.115 capillaries and MST measurements were performed using 80% laser power and medium MST power setting at 30 °C. For the small molecule–protein interaction experiments, GFP–Tor1-containing TORC1 (7.5 nM) was mixed with a series of twofold dilutions (a total of 16 samples) of Mal-CoA (M4263, Sigma-Aldrich; highest concentration, 5 mM) dissolved in 50 mM HEPES pH 7.5. The samples were loaded into Monolith NT.115 capillaries and MST measurements were performed using 80% laser power and medium MST power setting at 30 °C. The experiments were performed in triplicate and data were fitted using the Kd model of the MO.Affinity Analysis software (Nanotemper Technologies). The signal-to-noise ratio represents the response amplitude divided by the noise of the measurement. The Kd value was obtained by plotting the bound fraction against the log-transformed ligand concentration.

Src = biological target: T2, Src (Homo sapiens, UniProt P12931); experiment: Mammalian Src kinase activity assay (IVK, Glo1 substrate); format: biochemical; conditions: for In vitro kinase assay Src, p-Glo(Y316)/Glo, Mean: 0 mM = 1; for In vitro kinase assay Src, p-Glo(Y316)/Glo: Replicates 1-3, 0 mM = 1 (Ext. Fig. 10g)
T2 construct: purchased ProQinase 0200-0000-1
Experimental: In vitro assays for phosphorylation of Glo1 by Src were performed as described previously. […] The phosphorylation reaction was stopped by the addition of 2×Laemmli buffer and boiling the samples for 5 min at 95 °C. The samples were run on SDS–PAGE gels and immunoblotted for Src-dependent phosphorylation of Glo1 at Y316 using a homemade antibody.

TORC1 [2] = biological target: T1, TORC1; experiment: Yeast TORC1 kinase activity assays (radioactive IVK, Lst4^Loop substrate); format: biochemical; conditions: for In vitro TORC1 kinase assay - CoA compounds, relative activity, Mean: Fig. 8b; for In vitro TORC1 kinase assay - Mal-CoA/ATP competition, relative activity, Mean: Fig. 8h
Experimental: TORC1 was purified from yeast cells and radioactive IVK assays were performed essentially as previously described. Briefly, kinase reactions (total volume, 30 μl) were performed with 400 ng of purified His6–Lst4^Loop protein and 60 ng TORC1 in kinase buffer (50 mM HEPES NaOH pH 7.5 and 150 mM NaCl). […] All reactions were carried out at 30 °C for 10 min and stopped with the addition of 3×sample buffer (50 mM Tris–HCl pH 6.8, 5% SDS, 0.05% bromophenol blue, 630 mM DTT and 30% glycerol) and heating at 65 °C for 10 min. Proteins were separated by SDS–PAGE and stained in-gel with SYPRO Ruby (S4942, Sigma-Aldrich) as the loading control. Substrate phosphorylation was analysed by autoradiography using a Typhoon FLA 9500 phosphorimager (GE Healthcare) and the raw density of the signals was quantified using the gel analysis tool of ImageJ.

[3] = tested on: RagC lysosomal localization; experiment: Co-localization of RagC with LAMP2, confocal microscopy; format: cell-based, human; conditions: Ceru 4h, mean of individual cells (ED Fig. 8f); DMSO mean 0.563571
HEK293T cells = experiment: OPP incorporation assay (de novo protein synthesis); format: cell-based, human; conditions: cerulenin 50 μM, 4 h
Experimental: An OPP incorporation assay was used to test for de novo protein synthesis. […] The cells were subsequently washed with DPBS, trypsinized and fixed with ice-cold 70% ethanol for 30 min at −20 °C, followed by three washes with PBS containing 0.5% Tween-20. […] The samples were run in a Guava easyCyte HT flow cytometer (Millipore) and analysed using FlowJo (v10).

Snf1 (yeast AMPK) = experiment: Snf1 activation in yeast cells, p-Snf1^T210/His immunoblot; format: cell-based, Saccharomyces cerevisiae; conditions: cerulenin 20 μM, 2 h, wt Ctrl = 1, Fig. 3h

T2 sequence (P12931 whole entry): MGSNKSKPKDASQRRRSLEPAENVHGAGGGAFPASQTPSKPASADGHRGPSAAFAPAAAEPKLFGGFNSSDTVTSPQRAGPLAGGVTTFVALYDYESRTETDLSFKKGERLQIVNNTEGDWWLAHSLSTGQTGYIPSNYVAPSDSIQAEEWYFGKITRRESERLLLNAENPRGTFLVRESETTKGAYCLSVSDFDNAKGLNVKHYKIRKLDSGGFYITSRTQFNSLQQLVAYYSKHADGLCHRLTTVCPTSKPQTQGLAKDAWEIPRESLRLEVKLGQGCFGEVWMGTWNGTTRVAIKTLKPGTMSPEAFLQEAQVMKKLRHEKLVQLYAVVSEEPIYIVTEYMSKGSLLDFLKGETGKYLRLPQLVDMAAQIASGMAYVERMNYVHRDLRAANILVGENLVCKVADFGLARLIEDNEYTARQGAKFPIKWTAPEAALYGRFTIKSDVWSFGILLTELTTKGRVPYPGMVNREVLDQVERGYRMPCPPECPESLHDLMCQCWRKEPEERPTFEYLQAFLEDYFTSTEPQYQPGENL

CC(C)(COP(=O)(O)OP(=O)(O)OCC1OC(n2cnc3c(N)ncnc32)C(O)C1OP(=O)(O)O)C(O)C(=O)NCCC(=O)NCCSC(=O)CC(=O)O (stereo not shown) [Mal-CoA, malonyl-CoA]
Fraction bound transformed (TORC1 [1]; Mal-CoA 1.52588e-7 M): -0.1669 | Mean Fnorm (TORC1 [1]; Mal-CoA 1.52588e-7 M): 842.758 ‰ | Fnorm (TORC1 [1]; Mal-CoA 1.52588e-7 M, Replicates 1-3 (ED Fig. 10a)): 842.278 ‰ and 840.902 ‰ and 845.093 ‰ | Fraction bound transformed (TORC1 [1]; Mal-CoA 3.05176e-7 M): 0.1808 | Mean Fnorm (TORC1 [1]; Mal-CoA 3.05176e-7 M): 838.674 ‰ | Fnorm (TORC1 [1]; Mal-CoA 3.05176e-7 M, Replicates 1-2 (ED Fig. 10a)): 836.322 ‰ and 841.026 ‰ | Fraction bound transformed (TORC1 [1]; Mal-CoA 6.10352e-7 M): -0.2372 | Mean Fnorm (TORC1 [1]; Mal-CoA 6.10352e-7 M): 843.583 ‰ | Fnorm (TORC1 [1]; Mal-CoA 6.10352e-7 M, Replicates 1-3 (ED Fig. 10a)): 840.469 ‰ and 846.42 ‰ and 843.86 ‰ | Fraction bound transformed (TORC1 [1]; Mal-CoA 1.2207e-6 M): 0.2149 | Mean Fnorm (TORC1 [1]; Mal-CoA 1.2207e-6 M): 838.273 ‰ | Fnorm (TORC1 [1]; Mal-CoA 1.2207e-6 M, Replicates 1-3 (ED Fig. 10a)): 837.823 ‰ and 838.78 ‰ and 838.217 ‰ | Fraction bound transformed (TORC1 [1]; Mal-CoA 2.44141e-6 M): 0.1801 | Mean Fnorm (TORC1 [1]; Mal-CoA 2.44141e-6 M): 838.682 ‰ | Fnorm (TORC1 [1]; Mal-CoA 2.44141e-6 M, Replicates 1-3 (ED Fig. 10a)): 839.959 ‰ and 836.5 ‰ and 839.586 ‰ | Fraction bound transformed (TORC1 [1]; Mal-CoA 4.88281e-6 M): 0.2862 | Mean Fnorm (TORC1 [1]; Mal-CoA 4.88281e-6 M): 837.436 ‰ | Fnorm (TORC1 [1]; Mal-CoA 4.88281e-6 M, Replicates 1-3 (ED Fig. 10a)): 839.798 ‰ and 836.387 ‰ and 836.122 ‰ | Fraction bound transformed (TORC1 [1]; Mal-CoA 9.76563e-6 M): 0.3923 | Mean Fnorm (TORC1 [1]; Mal-CoA 9.76563e-6 M): 836.19 ‰ | Fnorm (TORC1 [1]; Mal-CoA 9.76563e-6 M, Replicates 1-3 (ED Fig. 10a)): 834.741 ‰ and 836.18 ‰ and 837.648 ‰ | Fraction bound transformed (TORC1 [1]; Mal-CoA 1.95313e-5 M): 0.495 | Mean Fnorm (TORC1 [1]; Mal-CoA 1.95313e-5 M): 834.984 ‰ | Fnorm (TORC1 [1]; Mal-CoA 1.95313e-5 M, Replicates 1-3 (ED Fig. 10a)): 835.416 ‰ and 833.302 ‰ and 836.235 ‰ | Fraction bound transformed (TORC1 [1]; Mal-CoA 3.90625e-5 M): 0.697 | Mean Fnorm (TORC1 [1]; Mal-CoA 3.90625e-5 M): 832.611 ‰ | Fnorm (TORC1 [1]; Mal-CoA 3.90625e-5 M, Replicates 1-3 (ED Fig. 10a)): 833.941 ‰ and 832.342 ‰ and 831.55 ‰ | Fraction bound transformed (TORC1 [1]; Mal-CoA 7.8125e-5 M): 0.721 | Mean Fnorm (TORC1 [1]; Mal-CoA 7.8125e-5 M): 832.33 ‰ | Fnorm (TORC1 [1]; Mal-CoA 7.8125e-5 M, Replicates 2-3 (ED Fig. 10a)): 830.576 ‰ and 834.083 ‰ | Fraction bound transformed (TORC1 [1]; Mal-CoA 0.00015625 M): 0.6458 | Mean Fnorm (TORC1 [1]; Mal-CoA 0.00015625 M): 833.212 ‰ | Fnorm (TORC1 [1]; Mal-CoA 0.00015625 M, Replicates 1-3 (ED Fig. 10a)): 833.177 ‰ and 832.509 ‰ and 833.951 ‰ | Fraction bound transformed (TORC1 [1]; Mal-CoA 0.0003125 M): 0.8154 | Mean Fnorm (TORC1 [1]; Mal-CoA 0.0003125 M): 831.221 ‰ | Fnorm (TORC1 [1]; Mal-CoA 0.0003125 M, Replicates 1-3 (ED Fig. 10a)): 828.879 ‰ and 833.898 ‰ and 830.884 ‰ | Fraction bound transformed (TORC1 [1]; Mal-CoA 0.00125 M): 0.8761 | Mean Fnorm (TORC1 [1]; Mal-CoA 0.00125 M): 830.508 ‰ | Fnorm (TORC1 [1]; Mal-CoA 0.00125 M, Replicates 1-3 (ED Fig. 10a)): 830.373 ‰ and 829.245 ‰ and 831.906 ‰ | Fraction bound transformed (TORC1 [1]; Mal-CoA 0.0025 M): 1.1671 | Mean Fnorm (TORC1 [1]; Mal-CoA 0.0025 M): 827.09 ‰ | Fnorm (TORC1 [1]; Mal-CoA 0.0025 M, Replicates 1-3 (ED Fig. 10a)): 828.614 ‰ and 826.728 ‰ and 825.93 ‰ | Fraction bound transformed (TORC1 [1]; Mal-CoA 0.005 M): 1.112 | Mean Fnorm (TORC1 [1]; Mal-CoA 0.005 M): 827.742 ‰ | Fnorm (TORC1 [1]; Mal-CoA 0.005 M, Replicates 1-3 (ED Fig. 10a)): 831.215 ‰ and 831.366 ‰ and 820.645 ‰ | Fraction bound transformed (TORC1 [1]; Mal-CoA […]): 1.135 | Mean Fnorm (TORC1 [1]; Mal-CoA […]): 827.462 ‰ | Kd (TORC1 [1]; purified yeast TORC1 (GFP–Tor1) 7.5 nM, 30 °C, mean ± s.d., n = 3, read-out: Kd (binding of Mal-CoA to TORC1, MST)): 19.3 µM | IC50 (Src): 3040 µM | In vitro kinase assay Src, p-Glo(Y316)/Glo, Mean (Src; Mal-CoA 0.1 mM): 0.9108 | In vitro kinase assay Src, p-Glo(Y316)/Glo (Src; Mal-CoA 0.1 mM): 1.011 and 0.7856 and 0.936 | In vitro kinase assay Src, p-Glo(Y316)/Glo, Mean (Src; Mal-CoA 0.5 mM): 0.93 | In vitro kinase assay Src, p-Glo(Y316)/Glo (Src; Mal-CoA 0.5 mM): 1.127 and 0.8462 and 0.8162 | In vitro kinase assay Src, p-Glo(Y316)/Glo, Mean (Src; Mal-CoA 1 mM): 0.7653 | In vitro kinase assay Src, p-Glo(Y316)/Glo (Src; Mal-CoA 1 mM): 0.7803 and 0.7329 and 0.7827 | In vitro kinase assay Src, p-Glo(Y316)/Glo, Mean (Src; Mal-CoA 2.5 mM): 0.5664 | In vitro kinase assay Src, p-Glo(Y316)/Glo (Src; Mal-CoA 2.5 mM): 0.5574 and 0.682 and 0.4598 | In vitro kinase assay Src, p-Glo(Y316)/Glo, Mean (Src; Mal-CoA 5 mM): 0.4682 | In vitro kinase assay Src, p-Glo(Y316)/Glo (Src; Mal-CoA 5 mM): 0.5068 and 0.3824 and 0.5156 | IC50 (TORC1 [2]): 334 µM | Ki (TORC1 [2]): 760 µM | In vitro TORC1 kinase assay - CoA compounds, relative activity, Mean (TORC1 [2]; compound 0.073 mM, normalised to this concentration): 1 | In vitro TORC1 kinase assay - CoA compounds, relative activity, Mean (TORC1 [2]; compound 0.22 mM): 0.8807 | In vitro TORC1 kinase assay - CoA compounds, relative activity, Mean (TORC1 [2]; compound 2 mM): 0.6407 | In vitro TORC1 kinase assay - CoA compounds, relative activity, Mean (TORC1 [2]; compound 6 mM): 0.5014 | In vitro TORC1 kinase assay - Mal-CoA/ATP competition, relative activity, Mean (TORC1 [2]; Mal-CoA 2 mM, ATP 0.015 mM): 0.1115 | In vitro TORC1 kinase assay - Mal-CoA/ATP competition, relative activity, Mean (TORC1 [2]; Mal-CoA 2 mM, ATP 0.044 mM): 0.189 | In vitro TORC1 kinase assay - Mal-CoA/ATP competition, relative activity, Mean (TORC1 [2]; Mal-CoA 2 mM, ATP 0.4 mM): 0.6161 | In vitro TORC1 kinase assay - Mal-CoA/ATP competition, relative activity, Mean (TORC1 [2]; Mal-CoA […], ATP 0.015 mM): 0.1191 | In vitro TORC1 kinase assay - Mal-CoA/ATP competition, relative activity, Mean (TORC1 [2]; Mal-CoA […], ATP 0.044 mM): 0.2424 | In vitro TORC1 kinase assay - Mal-CoA/ATP competition, relative activity, Mean (TORC1 [2]; Mal-CoA […], ATP 0.4 mM): 0.6289

C/C=C/C/C=C/CCC(=O)[C@H]1O[C@H]1C(N)=O [cerulenin]
RagC/LAMP2 colocalization (Manders' coefficient), Mean [3]: 0.5276 | OPP assay (median fluorescence intensity of OPP Alexa Fluor 488, relative to DMSO), Mean (HEK293T cells; HEK293T, n = 6, Fig. 2l): 0.7454 | de novo protein synthesis (HEK293T cells): decreased | p-Snf1(T210)/His (Snf1), Mean (Snf1 (yeast AMPK); acc1S1157A yeast): 1.0013 | p-Snf1(T210)/His (Snf1), Mean (Snf1 (yeast AMPK); wt yeast): 1.229
